Test results reported in patent US20160168140A1, “HETEROCYCLIC COMPOUNDS AS ANTIBIOTIC POTENTIATORS” (priority 2014, published 2016).
Where two headings read alike, the source gives them in different places.

How the values were obtained:
Format in all cases: cell-based
[1] = tested on: Staphylococcus aureus; test: Colistin MIC / MIC shift with compound at 10 μM (isolate panel, Table 19); conditions: for Colistin & Cmpd MIC shift / Colistin MIC with compound: compound at 10 μM
[2] = tested on: Acinetobacter baumannii (Ab23); test: MIC shift assay of antibiotics (broth microdilution); conditions: for Colistin MIC Shift: A. baumannii (MDR Ab), compd. concentration 4.0 μM, colistin MIC 0.5-1.0 μg/mL; for Colistin & Cmpd MIC shift / Colistin MIC with compound: compound at 10 μM; for colistin MIC shift, Ab23 at (compd concentration): fold shift of colistin MIC, nc = no changeover or no shift
Method in brief: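 Following a modified Wiegand broth microdilution protocol, colistin serial dilutions with or without test compound were set up in round-bottom 96-well plates and inoculated with A. baumannii cells to a starting OD600 of 0.005. Plates were shaken at 37° C. for 18 to 20 h and read at OD600. The fold shift was calculated from colistin MIC alone versus colistin MIC with test compound, with growth and medium-only blank controls.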

[3] = tested on: Serratia marcescens; test: Colistin MIC / MIC shift with compound at 10 μM (isolate panel, Table 19); conditions: Serratia marcescens 6147, Colistin-R; for Colistin & Cmpd MIC shift / Colistin MIC with compound: compound at 10 μM
[4] = tested on: Proteus vulgaris; test: as above; conditions: Proteus vulgaris 6240, Colistin-R; for Colistin & Cmpd MIC shift / Colistin MIC with compound: compound at 10 μM
[5] = tested on: Burkholderia cepacia; test: as above; conditions: Burkholderia cepacia 547, Colistin-R; for Colistin & Cmpd MIC shift / Colistin MIC with compound: compound at 10 μM
[6] = tested on: Providencia stuartii; test: as above; conditions: Providencia stuartii 6644, Colistin-R; for Colistin & Cmpd MIC shift / Colistin MIC with compound: compound at 10 μM
[7] = tested on: Pseudomonas aeruginosa; test: MIC shift assay of antibiotics (broth microdilution); conditions: for Colistin & Cmpd MIC shift / Colistin MIC with compound: compound at 10 μM
Method: (§1) Minimum inhibitory concentration (MIC) shift assays were performed to determine if the test compounds could alter the MIC of existing antibacterial drugs (e.g., ciprofloxacin and colistin) for E. coli, Acinetobacter baumannii, Klebsiella pneumoniae, Pseudomonas aeruginosa, and Enterobacter cloacae. The MIC shift assay is based on the standard broth microdilution MIC determination protocol of Wiegand et al, Nat Protoc. 3(2):163-75 (2008), with slight modifications that allow for the screening of up to seven test compounds in a single plate.
(§2) On the day before an assay, bacteria were grown overnight in cation-adjusted Mueller Hinton broth (CAMHB; Teknova, Hollister, Calif.) at 37° C. in an orbital shaker and sub-cultured at a 1:200 dilution the following morning. The cells were grown to OD600=0.5 to 0.8 and then diluted to OD600=0.01. From a serial dilution of each antibiotic at (50 μL of 2× concentrated stock solutions) several concentrations were added to the wells of a sterile, transparent round-bottom 96-well plate (Phenix Research Products, Candler, N.C.), and diluted cells (50 μL) were added to the plates for a starting OD600 of 0.005. Then, a test compound (2.5 μL) was added to each well to give a final concentration of 4 or 10 μM. A row of wells lacking test compound but containing the antibiotic was used to determine the MIC of that antibiotic alone. A column of wells lacking both antibiotic and test compound served as a growth control, and an additional column containing only CAMHB was included as a sterile blank control.
(§3) The plates were incubated for 18 to 20 h at 37° C. in an orbital shaker, and the cell density (OD600) was determined the following day in a microplate reader (PolarStar Optima, BMG Labtech). The MIC shift was determined by comparing the MIC of the antibiotic alone to the MIC of the antibiotic plus test compound.

[8] = tested on: Klebsiella pneumoniae; test: as above; conditions: for Colistin & Cmpd MIC shift / Colistin MIC with compound: compound at 10 μM
Method: as §1, §2, §3

[9] = tested on: E. coli; test: as above; conditions: for Colistin MIC Shift: E. coli (SCR1), compd. concentration 4.0 μM, colistin MIC 0.5-1.0 μg/mL; for MIC, agent alone / Colistin & Cmpd MIC shift / Colistin MIC with compound: Escherichia coli ATCC 25922 (MMX 102), QC, Colistin-S; for Colistin & Cmpd MIC shift / Colistin MIC with compound: compound at 10 μM
Method: as §1, §2, §3

[10] = Staphylococcus aureus ATCC 43300 (MMX 5999), MRSA
[11] = Acinetobacter baumannii ATCC 19606 (MMX 1630), Colistin-S
[12] = Acinetobacter baumannii Ab23, Colistin-R
[13] = Pseudomonas aeruginosa 1582, Colistin-I
[14] = Pseudomonas aeruginosa 6977, Colistin-R
[15] = Pseudomonas aeruginosa ATCC 27853 (MMX 103), QC, Colistin-S
[16] = Klebsiella pneumoniae 2237, Colistin-R
[17] = Klebsiella pneumoniae ATCC 13883 (MMX 214), Colistin-S

Cc1cccc2c(NCCCN(C)C)nc(-c3cc(-c4ccccc4)cc(C(F)(F)F)c3)nc12 [compound 343]
MIC, agent alone [1]: 1 µg/mL
MIC, agent alone [1, 10]: 1 µg/mL
Colistin & Cmpd MIC shift [1, 10]: 4267
Colistin MIC with compound [1, 10]: ≤ 0.015 µg/mL
Colistin & Cmpd MIC shift [1]: 4267
Colistin MIC with compound [1]: ≤ 0.015 µg/mL
Colistin MIC Shift [2]: 8x
MIC, agent alone [2, 11]: 16 µg/mL
Colistin & Cmpd MIC shift [2, 11]: 17
Colistin MIC with compound [2, 11]: 0.015 µg/mL
MIC, agent alone [2, 12]: 8 µg/mL
Colistin & Cmpd MIC shift [2, 12]: 4267
Colistin MIC with compound [2, 12]: 0.015 µg/mL
colistin MIC shift, Ab23 at (compd concentration) ([2]; compound concentration 2 μM): 8-16x
MIC, agent alone [3]: > 32 µg/mL
Colistin & Cmpd MIC shift [3]: 256
Colistin MIC with compound [3]: 0.25 µg/mL
MIC, agent alone [4]: > 32 µg/mL
Colistin & Cmpd MIC shift [4]: 4
Colistin MIC with compound [4]: > 16 µg/mL
MIC, agent alone [5]: > 32 µg/mL
Colistin & Cmpd MIC shift [5]: 4
Colistin MIC with compound [5]: > 16 µg/mL
MIC, agent alone [6]: > 32 µg/mL
Colistin & Cmpd MIC shift [6]: 4
Colistin MIC with compound [6]: > 16 µg/mL
MIC, agent alone [7, 13]: > 32 µg/mL
Colistin & Cmpd MIC shift [7, 13]: 2
Colistin MIC with compound [7, 13]: 0.5 µg/mL
MIC, agent alone [7, 14]: > 32 µg/mL
Colistin & Cmpd MIC shift [7, 14]: 64
Colistin MIC with compound [7, 14]: 1 µg/mL
MIC, agent alone [7, 15]: > 32 µg/mL
Colistin & Cmpd MIC shift [7, 15]: 4
Colistin MIC with compound [7, 15]: 0.06 µg/mL
MIC, agent alone [8, 16]: > 32 µg/mL
Colistin & Cmpd MIC shift [8, 16]: 128
Colistin MIC with compound [8, 16]: 0.25 µg/mL
MIC, agent alone [8, 17]: > 32 µg/mL
Colistin & Cmpd MIC shift [8, 17]: 8
Colistin MIC with compound [8, 17]: 0.015 µg/mL
Colistin MIC Shift [9]: 16x
MIC, agent alone [9]: > 32 µg/mL
Colistin & Cmpd MIC shift [9]: 8
Colistin MIC with compound [9]: 0.015 µg/mL

Clc1ccc2[nH]cc(-c3ccc(Cl)c(Cl)c3)c2c1 [compound 429]
MIC, agent alone [1]: 2 µg/mL
MIC, agent alone [1, 10]: 2 µg/mL
Colistin & Cmpd MIC shift [1, 10]: 4267
Colistin MIC with compound [1, 10]: ≤ 0.015 µg/mL
Colistin & Cmpd MIC shift [1]: 4267
Colistin MIC with compound [1]: ≤ 0.015 µg/mL
Colistin MIC Shift [2]: 2x
MIC, agent alone [2, 11]: > 32 µg/mL
Colistin & Cmpd MIC shift [2, 11]: 8
Colistin MIC with compound [2, 11]: 0.03 µg/mL
MIC, agent alone [2, 12]: > 32 µg/mL
Colistin & Cmpd MIC shift [2, 12]: 2133
Colistin MIC with compound [2, 12]: 0.03 µg/mL
MIC Shift of Ciprofloxacin ([2]; Compd. No. 429 concentration 8 μM, antibiotic Ciprofloxacin, A. baumannii (Ab23)): ≧32x
MIC Shift of Levofloxacin ([2]; Compd. No. 429 concentration 8 μM, antibiotic Levofloxacin, A. baumannii (Ab23)): ≧64x
MIC Shift of Meropenem ([2]; Compd. No. 429 concentration 8 μM, antibiotic Meropenem, A. baumannii (Ab23)): ≧16x
MIC Shift of Tobramycin ([2]; Compd. No. 429 concentration 8 μM, antibiotic Tobramycin, A. baumannii (Ab23)): ≧16x
colistin MIC shift, Ab23 at (compd concentration) ([2]; compound concentration 1 μM): 4x (1 μM);
colistin MIC shift, Ab23 at (compd concentration) ([2]; compound concentration 2 μM): ≧16x (2μM)
MIC, agent alone [3]: > 32 µg/mL
Colistin & Cmpd MIC shift [3]: 256
Colistin MIC with compound [3]: 0.25 µg/mL
MIC, agent alone [4]: > 32 µg/mL
Colistin & Cmpd MIC shift [4]: 1067
Colistin MIC with compound [4]: 0.06 µg/mL
MIC, agent alone [5]: > 32 µg/mL
Colistin & Cmpd MIC shift [5]: 4
Colistin MIC with compound [5]: > 16 µg/mL
MIC, agent alone [6]: > 32 µg/mL
Colistin & Cmpd MIC shift [6]: 4
Colistin MIC with compound [6]: 16 µg/mL
MIC, agent alone [7, 13]: > 32 µg/mL
Colistin & Cmpd MIC shift [7, 13]: 16
Colistin MIC with compound [7, 13]: 0.25 µg/mL
MIC, agent alone [7, 14]: > 32 µg/mL
Colistin & Cmpd MIC shift [7, 14]: 64
Colistin MIC with compound [7, 14]: 1 µg/mL
MIC, agent alone [7, 15]: > 32 µg/mL
Colistin & Cmpd MIC shift [7, 15]: 2
Colistin MIC with compound [7, 15]: 0.12 µg/mL
MIC, agent alone [8, 16]: > 32 µg/mL
Colistin & Cmpd MIC shift [8, 16]: 128
Colistin MIC with compound [8, 16]: 0.25 µg/mL
MIC, agent alone [8, 17]: > 32 µg/mL
Colistin & Cmpd MIC shift [8, 17]: 4
Colistin MIC with compound [8, 17]: 0.03 µg/mL
Colistin MIC Shift [9]: 4x
MIC, agent alone [9]: > 32 µg/mL
Colistin & Cmpd MIC shift [9]: 8
Colistin MIC with compound [9]: 0.015 µg/mL
